Data set [1] in a line: Model ethanolic sunscreen solutions, miscibility. The format is physicochemical. The conditions noted are these: by itself. The protocol: Three-component mixtures of ketal, ethanol, and avobenzone are prepared by mixing the materials at various proportions at room temperature in a vial and shaking. Avobenzone by itself is immiscible in ethanol at the 5% by weight level. The ketals used are as follows: A: ketal is 2EH-LPK; Example B: ketal is 1N-LPK. Example C: ketal is 355TMH-LPK.
Three-component mixtures of ketal, ethanol, and oxybenzone are prepared by mixing the materials at various proportions at room temperature in a vial and shaking. The ketals used are as follows: A: ketal is 2EH-LPK; Example B: ketal is 1N-LPK. Example C: ketal is 355TMH-LPK. Clear mixtures are considered to be “miscible” on this test, whereas cloudy or phase separated mixtures are considered to be “immiscible.” Oxybenzone by itself is immiscible in ethanol at the 10% by weight level.

Data set [2] is described as follows: Relative VOC content / volatility by TGA emulating ASTM D2369. The settings on record: 110° C., nitrogen purge, 15 mg. Here is the method:
Here, 15 milligrams (mg) of each coalescent solvent was maintained at 110° C. for one hour with a nitrogen purge in a thermogravimetric analyzer (TGA).

The nature of data set [3]: Hydrolytic stability of coalescent solvents at room temperature (pH of latex formulation). Format: physicochemical. The conditions noted are these: 1.0 g coalescent in 10 g Rhoplex SG-10M; for Initial pH: adjusted to pH 9 with ammonia, room temperature; for pH 1 week / pH 2 weeks / pH 3 weeks / pH 4 weeks: stored at room temperature. An excerpt:
The pH of latex formulations containing ester-functionalized coalescent solvents was monitored over time to evaluate hydrolytic stability of the coalescent solvents. Not wishing to be bound by theory, ester hydrolysis may occur at a high alkaline pH (for example a pH greater than about 9) during storage of latex compositions. The resulting hydrolysis products lower the pH of the latex composition and could decrease the coalescing efficiency of the coalescing solvent with respect to the initial amount of the coalescing solvent.
(§1) Latex formulations were prepared by adding 1.0 gram of each coalescent solvent to 10 grams of an acrylic latex (Rhoplex SG-10M available from Dow Chemical Company) and adjusting the pH of each sample to a pH of 9 using ammonia. A control latex formulation was prepared without adding a coalescent solvent.

The nature of data set [4]: Solubility of personal care or medicinal active agents in ketal. The conditions noted are these: 50/50 mixture, room temperature. An excerpt:
Certified organic tea tree oil (Melaleuca alternifolia, plant sourced from Australia and extracted by steam distillation) can be purchased from Wyndmere Naturals.
The recommended usage rate is 0.1-1%.
The recommended usage rate is 0.01-0.05%.

Data set [5] in a line: Compatibility between waxes and alkyl ketal esters. The format is physicochemical. An excerpt: Compatibility between various waxes and the alkyl ketal esters are first determined as detailed below. Table 13 below details the fragrant formulations for different candles that contain the fragrant composition.
A short description of data set [6]: Hydrolytic stability of coalescent solvents at elevated temperature (45° C.). The conditions noted are these: 1.0 g coalescent in 10 g Rhoplex SG-10M; for Initial pH: adjusted to pH 9 with ammonia, 45° C. study; for pH 1 week / pH 2 weeks: stored at 45° C. The format is physicochemical. Here is the method:
as §1

The nature of data set [7]: Miscibility of alkyl ketal ester with essential oil. Format: physicochemical. The settings on record: room temperature. The source says:
The alkyl ketal ester and the essential oil are blended in a weight ratio of 1:1 at room temperature using gentle agitation. Solubility is visually determined immediately after mixing. Clear solutions are described as “miscible” and solutions that are either cloudy or show evidence of a second phase are labeled as “immiscible.”

[8] abbreviates: Beeswax, 50/50 weight ratio, heated to 80° C., cooled to room temperature.
The mark [9] stands for this setting: Carnauba wax, 50/50 weight ratio, heated to 120° C.
[10] abbreviates: Paraffin wax, 50/50 weight ratio, heated to 80° C., cooled to room temperature.
Setting [11] is: Paraffin wax, 75/25 weight ratio, heated to 80° C., cooled to room temperature.
[12] abbreviates: Stearic acid, 50/50 weight ratio, heated to 80° C., cooled to room temperature.
Setting [13] is: with Basil (Ocimum basilicum) essential oil.
Setting [14] is: with Bergamot (Citrus bergamia) essential oil.
Where [15] appears, read: with Birch sweet (Betula lenta) essential oil.
Where [16] appears, read: with Citronella (Cymbopogon nardus) essential oil.
[17] abbreviates: with Coriander seed (Coriandrum sativum) essential oil.
The mark [18] stands for this setting: with Geranium (Pelargonium graveolens) essential oil.
Where [19] appears, read: with Lavender (Lavandula angustifolium) essential oil.
The mark [20] stands for this setting: with Myrrh (Commiphora myrrha) essential oil.
Where [21] appears, read: with Orange (Citrus sinensis) essential oil.
[22] abbreviates: with Patchouli (Pogostemon patchouli) essential oil.
[23] abbreviates: with Pine needle (pinus sylvestris) essential oil.
[24] abbreviates: with Vetiver (Vetivera zizanoides) essential oil.
Setting [25] is: with Ylang ylang (Canaga odorata) essential oil.

With `COc1ccc(C(=O)CC(=O)c2ccc(C(C)(C)C)cc2)cc1` [Avobenzone, avobenzone], the Miscibility in ethanol entry in data set [1] (5% by weight level in ethanol) is “immiscible”.

Take `COc1ccc(C(=O)c2ccccc2)c(O)c1` [Oxybenzone, oxybenzone]: the Miscibility in ethanol result in data set [1] (10% by weight level in ethanol) was “immiscible”.

Consider “2,2,4-trimethyl-1,3-pentanediol monoisobutyrate [TPM]”, for which the “% mass remaining” value in data set [2] (0 min) is reported as 100%; in data set [2] (5 min), 74%; in data set [2] (10 min), 49%; in data set [2] (15 min), 26%; in data set [2] (20 min), 4%; in data set [2] (30 min), 0%. For the same compound, the “% mass remaining” value in data set [2] (60 min) is given as 0%.

Regarding `CC(C)OC(=O)CCC1(C)OCC(C)O1` (stereo not drawn) [iPrLPK, isopropyl levulinate propylene glycol ketal], in data set [3], the “Initial pH” value is given as 8.93, the “pH 1 week” value was found to be 8.79, the “pH 2 weeks” value amounted to 8.73 and the “pH 3 weeks” value worked out at 8.71. Besides, the “pH 4 weeks” value in data set [3] worked out at 8.64.

Regarding `CC(CCOC(=O)CCC1(C)OCC(C)O1)CC(C)(C)C` (stereo not drawn) [355TMH-LPK, 3,5,5-trimethylhexyl levulinate propylene glycol ketal], the “Miscibility with tea tree oil” value in data set [4] is “miscible”. Further, the “Compatibility with wax upon cooling” value in data set [5] (setting [8]), in data set [5] (setting [9]), in data set [5] (setting [10]), in data set [5] (setting [11]) and in data set [5] (setting [12]) was “single homogenous wax layer” in each case. Besides, the “Initial pH” value in data set [6] is recorded as 8.92. Also, the “pH 1 week” value in data set [6] is 8.78. Also, the “pH 2 weeks” value in data set [6] turned out to be 8.64. The “Miscibility of 50/50 blend by weight” value in data set [7] (setting [13]), in data set [7] (setting [14]), in data set [7] (setting [15]), in data set [7] (setting [16]), in data set [7] (setting [17]) and in data set [7] (setting [18]) was “Miscible” throughout. Also, the “Miscibility of 50/50 blend by weight” value in data set [7] (setting [19]), in data set [7] (setting [20]), in data set [7] (setting [21]), in data set [7] (setting [22]), in data set [7] (setting [23]) and in data set [7] (setting [24]) was “Miscible” throughout. In addition, the “Miscibility of 50/50 blend by weight” value in data set [7] (setting [25]) is “Miscible”.

For `CCCCC(CC)COC(=O)CCC1(C)OCC(C)O1` (stereo not drawn) [2EH-LPK, 2-ethylhexyl levulinate propylene glycol ketal], the “Miscibility with tea tree oil” value in data set [4] is “miscible”. Further, in data set [3], the “Initial pH” value turned out to be 8.97. The “pH 1 week” value in data set [3] came out at 8.99. Moreover, the “pH 2 weeks” value in data set [3] is 8.94. Further, the “pH 3 weeks” value in data set [3] came out at 9.03. The “pH 4 weeks” value in data set [3] was 9.00. Besides, the “Compatibility with wax upon cooling” value in data set [5] (setting [8]), in data set [5] (setting [9]), in data set [5] (setting [10]), in data set [5] (setting [11]) and in data set [5] (setting [12]) was “single homogenous wax layer” each time. The “Miscibility of 50/50 blend by weight” value in data set [7] (setting [13]), in data set [7] (setting [14]), in data set [7] (setting [15]), in data set [7] (setting [16]), in data set [7] (setting [17]) and in data set [7] (setting [18]) was “Miscible” throughout. The “Miscibility of 50/50 blend by weight” value in data set [7] (setting [19]), in data set [7] (setting [20]), in data set [7] (setting [21]), in data set [7] (setting [22]), in data set [7] (setting [23]) and in data set [7] (setting [24]) was “Miscible” in each case. Besides, the “Miscibility of 50/50 blend by weight” value in data set [7] (setting [25]) was “Miscible”.

Turning to `CCOC(=O)CCC1(C)OCC(C)O1` (stereo not drawn) [EtLPK, ethyl levulinate propylene glycol ketal], in data set [3], the “Initial pH” value is recorded as 9.00, the “pH 1 week” value amounted to 8.69, the “pH 2 weeks” value stood at 8.53 and the “pH 3 weeks” value was 8.41. Moreover, the “pH 4 weeks” value in data set [3] was determined as 8.24. In data set [6], the “Initial pH” value came out at 8.95, the “pH 1 week” value was 8.06 and the “pH 2 weeks” value turned out to be 7.53.

As for `CCCCCCCCCOC(=O)CCC1(C)OCC(C)O1` (stereo not drawn) [1N-LPK, 1-nonyl levulinate propylene glycol ketal], the “Miscibility with tea tree oil” value in data set [4] is reported as “miscible”. Also, the “Compatibility with wax upon cooling” value in data set [5] (setting [8]), in data set [5] (setting [9]), in data set [5] (setting [10]), in data set [5] (setting [11]) and in data set [5] (setting [12]) was “single homogenous wax layer” in each case. For the same compound, in data set [6], the “Initial pH” value is on record as 8.92. In addition, the “pH 1 week” value in data set [6] is recorded as 8.75. In addition, in data set [6], the “pH 2 weeks” value is recorded as 8.63. For the same compound, the “Miscibility of 50/50 blend by weight” value in data set [7] (setting [13]), in data set [7] (setting [14]), in data set [7] (setting [15]), in data set [7] (setting [16]), in data set [7] (setting [17]) and in data set [7] (setting [18]) was “Miscible” each time. For the same compound, the “Miscibility of 50/50 blend by weight” value in data set [7] (setting [19]), in data set [7] (setting [20]), in data set [7] (setting [21]), in data set [7] (setting [22]), in data set [7] (setting [23]) and in data set [7] (setting [24]) was “Miscible” in each case. Moreover, in data set [7] (setting [25]), the “Miscibility of 50/50 blend by weight” value is given as “Miscible”.

The values are drawn from patent publication US9156809B2, “Carboxy ester ketals, methods of manufacture, and uses thereof” (SEGETIS, INC., priority 2012, dated 2015).
